From US11958865B1, “Leucine-rich repeat kinase 2 (LRRK2) inhibitors” (H. Lundbeck A/S, priority 2022, dated 2024)

Key:
[1] = target: T1, LRRK2 WT (Homo sapiens (Human), UniProt Q5S007); assay: LRRK2 wild-type ADP-Glo kinase assay; type: biochemical; settings: read-out: LRRK2 WT ADPGlo IC50
Procedure: LRRK2 kinase activity was measured using an ADP-Glo kinase assay from Promega Corporation. The assay is a homogeneous luminescence-based assay that measures ADP formed from a kinase reaction. The ADP is converted into ATP, which is used to generate light in a luciferase reaction. The luminescence generated correlates with kinase activity.
The LRRK2 kinase was obtained from Invitrogen (Life Technologies Corporation) and comprises residue 970 to 2527 of the full length human wild-type LRRK2 kinase. The kinase reactions were performed in a 10 μL volume in 384-well plates. The kinase reaction buffer consisted of 50 mM Tris pH 8.5, 0.01% BRIJ-35, 10 mM MgCl2, 1 mM EGTA, and 2 mM DTT.
The reaction mixture (10 μl total volume) was incubated for 3 hours at room temperature (RT, ca. 25° C.), before the reaction was terminated by addition of 10 μl ADP-Glo reagent. The mixture was further incubated for 60 minutes at RT before addition of 20 μl Kinase detection reagent from the ADP-Glo assay kit. Luminescence signal was measure on a BMG Labtech Pherastar FSX multimode microplate reader. The signal integration time was 0.5 s.
Test compound potency (Ki,app) was estimated by nonlinear regression using the tight-binding fit model in GeneData Screener (GeneData AG). In cases where the Ki,app could not be determined, the % inhibition at the highest tested concentration is reported. The tight-binding fit model is given by euquation (2). […] Ki,app is the apparent dissociation constant of the inhibitor. The IC50 can be calculated as given by equation (3). Equation (3): IC50=Ki,app+[E]/2 (3) IC50 estimates were obtained from independent experiment and the logarithmic average was calculated.

[2] = target: LRRK2 G2019S (Homo sapiens (Human), UniProt Q5S007, G2019S); assay: LRRK2 G2019S LanthaScreen TR-FRET kinase activity assay; type: biochemical; settings: 250 pM kinase, 1.3 mM ATP, n≥2 tests
Chain of LRRK2 G2019S (Q5S007 970-2527 G2019S): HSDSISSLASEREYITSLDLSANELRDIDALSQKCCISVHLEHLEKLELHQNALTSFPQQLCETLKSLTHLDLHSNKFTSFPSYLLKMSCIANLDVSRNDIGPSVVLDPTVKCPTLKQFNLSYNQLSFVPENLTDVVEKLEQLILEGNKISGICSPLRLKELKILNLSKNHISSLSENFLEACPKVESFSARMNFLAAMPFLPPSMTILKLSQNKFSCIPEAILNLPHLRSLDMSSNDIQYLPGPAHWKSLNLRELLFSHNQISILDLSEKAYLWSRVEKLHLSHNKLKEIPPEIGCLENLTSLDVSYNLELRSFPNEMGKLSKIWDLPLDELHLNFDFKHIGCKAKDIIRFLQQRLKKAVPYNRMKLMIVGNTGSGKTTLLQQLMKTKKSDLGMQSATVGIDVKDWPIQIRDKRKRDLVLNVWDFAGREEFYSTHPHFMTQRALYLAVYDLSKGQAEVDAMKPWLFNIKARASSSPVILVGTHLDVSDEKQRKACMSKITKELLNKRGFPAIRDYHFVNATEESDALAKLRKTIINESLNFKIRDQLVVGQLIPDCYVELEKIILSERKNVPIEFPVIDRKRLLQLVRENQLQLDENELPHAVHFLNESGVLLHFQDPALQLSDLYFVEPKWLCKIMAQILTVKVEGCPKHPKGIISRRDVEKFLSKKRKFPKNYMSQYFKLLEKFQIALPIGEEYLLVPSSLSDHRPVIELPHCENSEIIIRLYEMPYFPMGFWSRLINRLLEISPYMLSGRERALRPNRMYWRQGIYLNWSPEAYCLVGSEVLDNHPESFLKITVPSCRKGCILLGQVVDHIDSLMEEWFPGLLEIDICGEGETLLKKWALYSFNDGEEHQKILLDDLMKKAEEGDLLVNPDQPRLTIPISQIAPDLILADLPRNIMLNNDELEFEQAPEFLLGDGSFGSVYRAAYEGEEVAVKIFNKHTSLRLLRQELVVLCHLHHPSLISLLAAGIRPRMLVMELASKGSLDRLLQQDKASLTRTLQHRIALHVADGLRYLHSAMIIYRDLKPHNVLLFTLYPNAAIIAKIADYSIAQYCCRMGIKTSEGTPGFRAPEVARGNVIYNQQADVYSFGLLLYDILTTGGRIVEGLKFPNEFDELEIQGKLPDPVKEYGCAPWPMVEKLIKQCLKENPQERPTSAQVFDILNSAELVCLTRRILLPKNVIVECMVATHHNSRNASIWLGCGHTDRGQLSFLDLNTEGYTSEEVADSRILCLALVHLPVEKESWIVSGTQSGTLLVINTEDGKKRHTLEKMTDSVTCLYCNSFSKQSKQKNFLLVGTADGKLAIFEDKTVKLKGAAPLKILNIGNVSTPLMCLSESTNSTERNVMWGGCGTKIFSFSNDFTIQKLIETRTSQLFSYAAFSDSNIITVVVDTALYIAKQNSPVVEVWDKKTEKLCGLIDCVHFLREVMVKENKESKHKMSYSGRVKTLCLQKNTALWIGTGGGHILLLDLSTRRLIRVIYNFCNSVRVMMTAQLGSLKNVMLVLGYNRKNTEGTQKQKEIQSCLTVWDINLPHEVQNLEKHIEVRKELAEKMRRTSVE
Procedure: (§1) LRRK2 kinase activity was measured using a LanthaScreen kinase activity assay available from Invitrogen (Life Technologies Corporation). […] The phosphorylated peptide is recognized by a terbium-labelled phospho-specific anti-LRRKtide antibody (pLRRKtide antibody), obtainable from Life Technologies Corporation) and, subsequently, the phosphorylated LRRKtide can be quantified by the extent of TR-FRET between the terbium donor and fluorescein acceptor.
(§2) As discussed above, this mutation increases the kinase activity relative to the wild type. The kinase reactions were performed in a 20 μL volume in 384-well plates. The kinase reaction buffer consisted of 50 mM Tris pH 8.5, 0.01% BRIJ-35, 10 mM MgCl2, 1 mM EGTA, and 2 mM DTT.
(§3) The mixture was further incubated for 30 minutes at RT. TR-FRET was measured by excitation of the terbium-donor with 340 nm light and subsequent (delay time […]) measurement of terbium and fluorescein emission at 495 nm and 520 nm, respectively, over a time window of […]. The measurement was repeated 30 times for fluorescein and 30 times for terbium emission with a […] between repeats. TR-FRET measurements were performed on a Biotek Synergy plate. The TR-FRET signal was calculated as the emission-ratio at 520 nm over 495 nm.
(§4) Test compound potency (IC50) was estimated by nonlinear regression using the sigmoidal dose-response (variable slope) using Xlfit 4 (IDBS, Guildford, Surrey, UK, model 205). Were the IC50 could not be determined the % inhibition at the highest tested concentration is given by equation 1. Equation (1): y=(A+((B−A)/(1+((C/x)^D)))) (1)
(§5) where y is the normalized TR-TRET ratio measurement for a given concentration of test compound, x is the concentration of test compound, A is the estimated efficacy (% inhibition) at infinite compound dilution, and B is the maximal efficacy (% inhibition). C is the IC50 value and D is the Hill slope coefficient. IC50 estimates were obtained from independent experiment and the logarithmic average was calculated.

[3] = target: T1, LRRK2 WT; assay: LRRK2 wild-type LanthaScreen TR-FRET kinase activity assay; type: biochemical; settings: 1 nM kinase, 1.3 mM ATP, n≥2 tests
Procedure: as §1, §2, §3, §4, §5

[4] = Hepatic microsomal intrinsic clearance assay; type: in vitro ADME; settings: pooled liver microsomes, pH 7.4; liver microsomes 0.5 mg/mL; 1 μM; NADPH; 1 hour at 37° C.; LLOQ 0.36 L/h/kg
In short: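 Compounds at 1 μM final were incubated with pooled liver microsomes (0.5 mg/mL) in phosphate buffer pH 7.4 at 37 °C for up to 60 min. Samples taken at 0, 5, 10, 20, 30 and 60 min were quenched with acetonitrile and analysed by LC-MS/MS.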

[5] = Hepatocyte intrinsic clearance assay; type: in vitro ADME, Human; settings: pooled donor, cryopreserved hepatocytes, pH 7.4; human hepatocytes 1×10^6/mL; 0.05 μM; 2 h at 37° C.
Procedure: Test compounds (final concentration 0.05 μM, 0.05% organic) were incubated for 2 h at 37° C., with shaking, in supplemented Leibovitz L-15 media (pH 7.4) containing commercially sourced, pooled donor, cryopreserved hepatocytes (final concentration 1×10^6 hepatocytes/mL). The CLint reactions (350 μL) were initiated by addition of test compound. Aliquots (25 μL) were taken at 1, 5, 10, 15, 30, 60, 90 and 120 minutes and then protein crashed with ice-cold acetonitrile containing internal standard (150 μL) then centrifuged (1960 g for 20 minutes at 4° C.). Supernatant was diluted (1:4) with deionized water then analyzed by liquid chromatography (LC)-tandem mass spectrometry (MS/MS).

T1 sequence (Q5S007 970-2527): as the sequence (Q5S007 970-2527 G2019S) above, with S1050G counted along it

IC50 [1]: 0.49 nM | IC50 [2]: 0.35 nM | IC50 [3]: 0.95 nM | CLint scaled at 1 μM [4]: 12.5 mL/min/kg | CLint scaled at 0.05 μM [5]: 17.7 mL/min/kg
Compound: [2H]C([2H])([2H])Oc1ncccc1-n1nc2c(c1C)Nc1ncc3c(Cl)nn(c3n1)CCCO2 [Example 24, 8-Chloro-2-(2-(methoxy-d3)pyridin-3-yl)-3-methyl-2,4,12,13-tetrahydro-11H-5,7-(azenometheno)dipyrazolo[3,4-b:5′,1′-g][1]oxa[4,6,8]triazacycloundecine]
